# Target: T1, WT human TRPM3 (Homo sapiens, UniProt Q9HCF6)
# T1 construct: expressed in transfected cells; host or cells: HEK293T
# T1 sequence (Q9HCF6 1-1325 isoform Q9HCF6-10): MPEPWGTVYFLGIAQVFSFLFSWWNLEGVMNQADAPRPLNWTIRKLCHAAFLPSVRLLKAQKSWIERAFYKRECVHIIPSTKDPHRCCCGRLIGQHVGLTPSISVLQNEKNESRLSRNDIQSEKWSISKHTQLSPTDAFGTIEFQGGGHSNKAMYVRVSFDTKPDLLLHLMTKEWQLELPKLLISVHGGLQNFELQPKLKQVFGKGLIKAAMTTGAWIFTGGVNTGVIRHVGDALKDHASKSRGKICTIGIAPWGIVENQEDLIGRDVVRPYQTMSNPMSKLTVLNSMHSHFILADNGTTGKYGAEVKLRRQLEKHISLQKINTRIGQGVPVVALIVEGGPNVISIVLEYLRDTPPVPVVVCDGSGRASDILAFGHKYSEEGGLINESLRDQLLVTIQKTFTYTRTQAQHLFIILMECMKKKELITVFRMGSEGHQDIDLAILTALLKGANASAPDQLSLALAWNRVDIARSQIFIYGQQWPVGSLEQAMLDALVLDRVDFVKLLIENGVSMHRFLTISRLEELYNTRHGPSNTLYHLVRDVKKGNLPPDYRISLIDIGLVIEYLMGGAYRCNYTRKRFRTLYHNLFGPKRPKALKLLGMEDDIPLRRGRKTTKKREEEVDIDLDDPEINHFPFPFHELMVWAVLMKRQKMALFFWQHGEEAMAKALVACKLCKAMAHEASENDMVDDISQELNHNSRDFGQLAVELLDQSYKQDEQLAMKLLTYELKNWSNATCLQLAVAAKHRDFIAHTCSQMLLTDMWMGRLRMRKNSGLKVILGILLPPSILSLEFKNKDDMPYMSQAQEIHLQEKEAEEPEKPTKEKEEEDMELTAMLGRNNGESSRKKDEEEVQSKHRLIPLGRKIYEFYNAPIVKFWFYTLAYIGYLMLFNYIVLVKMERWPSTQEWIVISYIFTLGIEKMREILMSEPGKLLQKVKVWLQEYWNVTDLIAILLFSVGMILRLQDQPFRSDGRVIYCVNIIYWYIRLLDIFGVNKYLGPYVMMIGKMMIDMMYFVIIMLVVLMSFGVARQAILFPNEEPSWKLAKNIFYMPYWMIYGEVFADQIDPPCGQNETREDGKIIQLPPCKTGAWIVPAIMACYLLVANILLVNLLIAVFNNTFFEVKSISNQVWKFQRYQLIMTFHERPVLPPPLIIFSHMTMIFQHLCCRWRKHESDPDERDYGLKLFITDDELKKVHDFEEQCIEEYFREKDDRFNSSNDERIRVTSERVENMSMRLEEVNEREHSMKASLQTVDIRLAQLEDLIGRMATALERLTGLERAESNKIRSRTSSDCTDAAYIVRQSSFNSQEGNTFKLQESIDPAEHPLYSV
# Assay: Fura-2-based calcium imaging, HEK293T cells transfected with WT hTRPM3
# Format: cell-based
# Description: HEK293T cells ([Graham et al., 1977]) were cultured as described previously ([Vriens et al., 2007]) and used up in passage number 14. HEK293T cells were tested for the lack of mycoplasma and transiently transfected with 2 µg of DNA using TransIT transfection reagent (Mirus) 36–48 hr before the measurements. In case of co-cultures a ratio of 1:1 between hTRPM3-YFP WT and mutants-YFP DNA was used.
# Changes in intracellular calcium concentration were monitored using ratiometric Fura-2-based fluorimetry. Cells were loaded with 2 µM Fura-2-acetoxymethyl ester (Alexis Biochemicals) for 30 min at 37°C. Fluorescence was measured during alternating illumination at 340 and 380 nm using Eclipse Ti (Nikon) fluorescence microscopy system, and absolute calcium concentration was calculated from the ratio of the fluorescence signals at these two wavelengths (R = F340/F380) as [Ca^2+]=Km × (R-Rmin)/(Rmax-R), where Km, Rmin and Rmax were estimated from in vitro calibration experiments with known calcium concentrations. The bath solution contained (in mM) 138 NaCl, 5.4 KCl, 2 CaCl2, 2 MgCl2, 10 glucose, and 10 HEPES, pH 7.4. […] The chemical ligands were dissolved in bath solution from a stock diluted in DMSO.
Compound,"Effect on basal [Ca2+]i (primidone 100 µM, isosakuranetin 50 µM)",PS concentration required to induce a detectable calcium response [µM]
CCC1(c2ccccc2)C(=O)NCNC1=O [primidone],reduced [Ca^2+]i,–
pregnenolone sulfate [PS],–,10
